“Also recorded” adds a separate entry of the source. Like-named read-outs stand apart in the source and are kept apart here.
What was measured:
OATP1B1 = OATP1B1 (Homo sapiens, UniProt Q9Y6L6); assay: Transporter inhibition, OATP1B1
CYP1A2 = CYP1A2 (Homo sapiens, UniProt P05177); assay: CYP inhibition in human liver microsomes, CYP1A2
[1] = test system: peripheral NK, NKT cells, circulating reticulocytes; assay: NK, NKT cell and reticulocyte counts in healthy human subjects dosed bid for 14 days; assay type: in vivo; details: 3, 6, 12, 24 mg bid 14 days
Protocol: The following procedure is provided to illustrate a method of counting TBNK cells from a blood sample, such as one collected from a human subject orally dosed with a compound of the invention. The method (including the type of instruments and reagents used) as described herein in is non-limiting, as minor variations to the procedure and equivalent instruments and reagents can be readily envisioned.
Specifically, a blood sample is collected into 3 mL lavender K2 EDTA Vacutainer at specified time points and tubes mixed. Samples are shipped to analysis facility at ambient temperature overnight, and sample analysis is preferably done on the day received.
Two BD Trucount tubes (BD Biosciences, cat #340334) are used per sample and labeled with sample number followed by A or B. Two tubes are also set up for the BD Multi-Check Control (BD Biosciences, cat #340911) that is a stabilized blood sample used as an inter-run control each time samples are analyzed. […]
For NKT cell determination, cell numbers are determined by using FlowJo and looking at the CD3^+/CD16^+/CD56^+ population. The number of cells/μL is calculated by using the following equation: (the number of events in cell population/the number of events in absolute bead count region)×(the number of beads per test*/test volume). *This value is found on BD Trucount tube label.

CYP2B6 = CYP2B6 (Homo sapiens, UniProt P20813); assay: CYP inhibition in human liver microsomes, CYP2B6
Chain of CYP2B6 (P20813 whole entry): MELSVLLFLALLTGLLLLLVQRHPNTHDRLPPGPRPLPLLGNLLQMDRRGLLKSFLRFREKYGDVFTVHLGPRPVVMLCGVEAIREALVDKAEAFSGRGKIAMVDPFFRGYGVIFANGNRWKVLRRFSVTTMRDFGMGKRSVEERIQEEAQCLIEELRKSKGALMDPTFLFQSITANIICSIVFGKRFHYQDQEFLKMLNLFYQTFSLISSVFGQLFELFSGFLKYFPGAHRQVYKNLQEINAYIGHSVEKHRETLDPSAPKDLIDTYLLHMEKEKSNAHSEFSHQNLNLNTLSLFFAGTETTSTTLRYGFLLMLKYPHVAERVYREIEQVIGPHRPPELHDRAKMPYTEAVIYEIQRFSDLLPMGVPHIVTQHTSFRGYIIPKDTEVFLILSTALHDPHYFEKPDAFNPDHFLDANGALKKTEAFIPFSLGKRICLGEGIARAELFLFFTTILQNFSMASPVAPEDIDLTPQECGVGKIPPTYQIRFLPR

[2] = [14C]Compound 1 absorption and excretion in bile duct-cannulated rats; assay type: in vivo, Sprague-Dawley male rats
IL-15 signaling = assay: Whole blood assay IL-15 pSTAT5 CD3+; assay type: cell-based
EPO (Erythroid CFU) = assay: Erythroid bone marrow colony forming assay (EPO); assay type: cell-based; details: read-out: Colony Formation EPO (Erythroid CFU)
[3] = Human PK, single ascending dose Study M13-401; assay type: in vivo; details: for AUC(0-t) / AUC(0-inf): human, in vivo
CYP2C19 = CYP2C19 (Homo sapiens, UniProt P33261); assay: CYP inhibition in human liver microsomes, CYP2C19
Chain of CYP2C19 (P33261 whole entry): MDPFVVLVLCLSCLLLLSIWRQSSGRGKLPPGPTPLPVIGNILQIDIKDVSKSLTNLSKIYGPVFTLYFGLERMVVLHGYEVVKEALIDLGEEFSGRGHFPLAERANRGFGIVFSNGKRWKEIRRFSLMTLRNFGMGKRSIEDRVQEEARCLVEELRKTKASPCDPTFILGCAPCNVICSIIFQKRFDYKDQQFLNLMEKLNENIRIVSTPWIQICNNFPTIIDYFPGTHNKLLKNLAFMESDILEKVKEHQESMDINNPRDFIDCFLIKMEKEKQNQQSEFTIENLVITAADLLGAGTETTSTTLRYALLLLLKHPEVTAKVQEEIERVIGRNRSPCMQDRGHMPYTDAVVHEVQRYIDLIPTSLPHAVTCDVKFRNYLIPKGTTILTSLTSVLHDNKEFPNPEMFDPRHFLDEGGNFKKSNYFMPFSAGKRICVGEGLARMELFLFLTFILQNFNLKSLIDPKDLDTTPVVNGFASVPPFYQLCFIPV

CYP2C9 = CYP2C9 (Homo sapiens, UniProt P11712); assay: CYP inhibition in human liver microsomes, CYP2C9
Chain of CYP2C9 (P11712 whole entry): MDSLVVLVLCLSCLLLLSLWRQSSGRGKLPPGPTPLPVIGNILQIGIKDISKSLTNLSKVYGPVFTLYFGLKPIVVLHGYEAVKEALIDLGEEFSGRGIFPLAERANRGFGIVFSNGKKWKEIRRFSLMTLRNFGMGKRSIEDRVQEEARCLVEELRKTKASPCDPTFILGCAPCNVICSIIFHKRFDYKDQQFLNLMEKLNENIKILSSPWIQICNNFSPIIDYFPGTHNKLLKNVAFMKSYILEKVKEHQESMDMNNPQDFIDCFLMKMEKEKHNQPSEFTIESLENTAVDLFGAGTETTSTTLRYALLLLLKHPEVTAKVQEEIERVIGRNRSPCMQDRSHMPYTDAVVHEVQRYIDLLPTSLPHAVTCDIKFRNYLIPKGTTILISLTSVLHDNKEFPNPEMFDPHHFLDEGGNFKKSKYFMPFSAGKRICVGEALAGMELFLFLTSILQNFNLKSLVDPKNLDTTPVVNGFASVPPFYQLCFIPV

[4] = Metabolic stability in hepatocytes, dog; assay type: in vitro ADME; details: read-out: intrinsic clearance in hepatocytes (converted)
MATE1 = MATE1 (Homo sapiens, UniProt Q96FL8); assay: Transporter inhibition, MATE1
Chain of MATE1 (Q96FL8 whole entry): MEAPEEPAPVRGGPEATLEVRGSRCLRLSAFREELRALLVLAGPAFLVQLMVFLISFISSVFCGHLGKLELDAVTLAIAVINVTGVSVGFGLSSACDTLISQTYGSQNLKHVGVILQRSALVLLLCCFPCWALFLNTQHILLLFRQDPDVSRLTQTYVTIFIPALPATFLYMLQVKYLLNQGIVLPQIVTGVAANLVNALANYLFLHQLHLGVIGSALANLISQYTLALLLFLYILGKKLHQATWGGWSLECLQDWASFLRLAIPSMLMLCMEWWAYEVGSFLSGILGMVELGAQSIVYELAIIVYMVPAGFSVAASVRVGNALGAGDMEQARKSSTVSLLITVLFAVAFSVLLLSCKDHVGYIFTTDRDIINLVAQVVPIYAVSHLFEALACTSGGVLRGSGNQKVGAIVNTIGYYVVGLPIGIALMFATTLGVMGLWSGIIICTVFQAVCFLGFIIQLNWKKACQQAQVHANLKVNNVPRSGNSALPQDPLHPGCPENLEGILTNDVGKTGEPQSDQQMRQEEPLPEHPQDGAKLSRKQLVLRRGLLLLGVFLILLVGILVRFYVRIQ

P-gp = P-gp (Homo sapiens, UniProt P08183); assay: P-gp inhibition; assay type: in vitro ADME
Chain of P-gp (P08183 whole entry): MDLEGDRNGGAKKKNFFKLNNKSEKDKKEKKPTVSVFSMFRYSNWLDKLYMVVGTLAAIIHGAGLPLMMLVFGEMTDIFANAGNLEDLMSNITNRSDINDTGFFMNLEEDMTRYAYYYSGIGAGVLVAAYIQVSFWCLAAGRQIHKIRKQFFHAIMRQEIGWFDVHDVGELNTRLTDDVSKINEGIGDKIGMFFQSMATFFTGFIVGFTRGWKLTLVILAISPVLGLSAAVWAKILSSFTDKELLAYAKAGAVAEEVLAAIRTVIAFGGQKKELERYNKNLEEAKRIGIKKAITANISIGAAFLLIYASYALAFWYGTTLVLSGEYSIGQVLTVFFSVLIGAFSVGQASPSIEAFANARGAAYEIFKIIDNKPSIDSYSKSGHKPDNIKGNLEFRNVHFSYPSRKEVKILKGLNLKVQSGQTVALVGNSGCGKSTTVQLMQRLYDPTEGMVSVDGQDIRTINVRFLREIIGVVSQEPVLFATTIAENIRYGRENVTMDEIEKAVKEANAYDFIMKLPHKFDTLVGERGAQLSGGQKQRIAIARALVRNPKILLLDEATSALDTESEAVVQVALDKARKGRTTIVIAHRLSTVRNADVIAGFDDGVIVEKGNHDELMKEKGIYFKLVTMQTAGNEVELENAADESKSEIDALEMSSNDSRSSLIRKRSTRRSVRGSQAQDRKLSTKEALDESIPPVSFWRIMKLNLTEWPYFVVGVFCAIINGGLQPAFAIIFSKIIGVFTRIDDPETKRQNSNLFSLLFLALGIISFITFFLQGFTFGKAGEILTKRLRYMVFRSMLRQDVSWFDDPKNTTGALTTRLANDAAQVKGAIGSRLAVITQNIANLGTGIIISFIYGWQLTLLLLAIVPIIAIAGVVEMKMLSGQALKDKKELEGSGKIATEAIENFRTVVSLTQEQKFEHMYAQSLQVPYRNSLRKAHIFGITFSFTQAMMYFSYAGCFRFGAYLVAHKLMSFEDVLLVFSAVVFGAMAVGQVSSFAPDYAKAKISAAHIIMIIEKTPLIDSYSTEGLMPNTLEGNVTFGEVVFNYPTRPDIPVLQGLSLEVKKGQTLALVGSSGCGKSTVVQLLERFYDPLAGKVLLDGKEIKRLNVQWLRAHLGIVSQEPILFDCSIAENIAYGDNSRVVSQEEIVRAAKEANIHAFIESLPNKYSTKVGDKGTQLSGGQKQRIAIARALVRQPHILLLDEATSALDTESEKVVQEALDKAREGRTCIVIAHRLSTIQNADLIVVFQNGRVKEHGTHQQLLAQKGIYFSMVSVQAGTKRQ

CYP3A4 = assay: CYP induction (mRNA) in human hepatocytes, CYP3A4; assay type: in vitro ADME; details: 1, 3, and 10 μM
CYP2C8 = CYP2C8 (Homo sapiens, UniProt P10632); assay: CYP inhibition in human liver microsomes, CYP2C8
Chain of CYP2C8 (P10632 whole entry): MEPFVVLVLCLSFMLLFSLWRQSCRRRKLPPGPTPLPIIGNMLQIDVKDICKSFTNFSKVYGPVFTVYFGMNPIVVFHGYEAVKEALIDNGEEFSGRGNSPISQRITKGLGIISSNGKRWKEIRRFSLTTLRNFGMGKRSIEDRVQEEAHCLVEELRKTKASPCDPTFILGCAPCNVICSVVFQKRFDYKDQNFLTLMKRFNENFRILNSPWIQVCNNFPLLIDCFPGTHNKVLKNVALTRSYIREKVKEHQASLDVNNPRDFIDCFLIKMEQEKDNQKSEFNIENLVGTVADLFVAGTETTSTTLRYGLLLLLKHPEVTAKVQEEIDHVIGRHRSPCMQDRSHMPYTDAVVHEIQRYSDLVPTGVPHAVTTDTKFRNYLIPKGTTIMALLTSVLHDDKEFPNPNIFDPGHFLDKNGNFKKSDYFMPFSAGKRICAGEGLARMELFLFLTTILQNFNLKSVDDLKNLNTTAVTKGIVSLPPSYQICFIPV

[5] = Plasma protein binding, rat; assay type: in vitro ADME
[6] = Metabolic stability in liver microsomes, rat; assay type: in vitro ADME; details: read-out: intrinsic clearance in liver microsomes (scaled) (converted)
[7] = 9-month (39 weeks) GLP chronic oral toxicity study in dogs; details: both sexes, beagle, in vivo, dog, 9 months (39 weeks)
Protocol: The GLP-compliant studies each included 4 weeks of oral dosing followed by a 4-week recovery period in both rats and dogs followed by GLP-compliant chronic toxicity studies in rats (6 months of oral dosing) and dogs (9 months of oral dosing).
A subsequent GLP-compliant 9-month chronic dog study was conducted in beagle dogs at dosages of 0, 0.1, 0.5, and 1.5 mg/kg/day by daily oral capsule administration. No Compound 1-related changes in food consumption or body weights were observed during the dosing period.

Chain of CYP1A2 (P05177 whole entry): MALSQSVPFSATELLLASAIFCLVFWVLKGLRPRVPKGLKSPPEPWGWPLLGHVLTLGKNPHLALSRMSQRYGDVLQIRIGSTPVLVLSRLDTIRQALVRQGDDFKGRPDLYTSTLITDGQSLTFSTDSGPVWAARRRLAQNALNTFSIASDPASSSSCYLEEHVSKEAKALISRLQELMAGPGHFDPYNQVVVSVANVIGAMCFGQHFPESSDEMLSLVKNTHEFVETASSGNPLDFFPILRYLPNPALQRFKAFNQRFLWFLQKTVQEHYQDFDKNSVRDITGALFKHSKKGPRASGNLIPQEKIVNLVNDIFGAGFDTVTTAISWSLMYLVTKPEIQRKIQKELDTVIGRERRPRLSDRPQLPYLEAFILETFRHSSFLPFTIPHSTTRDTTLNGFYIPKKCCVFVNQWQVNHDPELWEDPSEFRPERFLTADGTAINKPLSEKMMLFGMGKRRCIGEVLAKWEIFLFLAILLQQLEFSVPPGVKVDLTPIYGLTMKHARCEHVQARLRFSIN
Chain of OATP1B1 (Q9Y6L6 whole entry): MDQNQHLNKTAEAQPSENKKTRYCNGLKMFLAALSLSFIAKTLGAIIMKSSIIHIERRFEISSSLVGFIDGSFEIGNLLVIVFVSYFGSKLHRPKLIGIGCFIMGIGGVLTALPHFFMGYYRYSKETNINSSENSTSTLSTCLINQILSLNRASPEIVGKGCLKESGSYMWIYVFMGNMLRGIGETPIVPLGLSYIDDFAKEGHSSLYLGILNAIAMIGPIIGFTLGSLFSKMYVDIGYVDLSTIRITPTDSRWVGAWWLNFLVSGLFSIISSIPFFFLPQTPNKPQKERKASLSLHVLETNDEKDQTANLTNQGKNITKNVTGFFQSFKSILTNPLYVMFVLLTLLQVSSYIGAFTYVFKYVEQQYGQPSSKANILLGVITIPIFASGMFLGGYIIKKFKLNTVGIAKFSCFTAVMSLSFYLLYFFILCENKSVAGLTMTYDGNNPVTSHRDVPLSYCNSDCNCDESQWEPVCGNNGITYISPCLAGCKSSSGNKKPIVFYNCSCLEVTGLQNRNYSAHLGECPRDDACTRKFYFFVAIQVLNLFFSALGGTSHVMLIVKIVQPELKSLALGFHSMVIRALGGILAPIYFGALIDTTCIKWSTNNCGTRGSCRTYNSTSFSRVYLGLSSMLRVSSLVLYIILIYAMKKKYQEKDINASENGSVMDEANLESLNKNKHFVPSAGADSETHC

**Q.** Which IC50 (OATP1B1) does the source give for `CC[C@@H]1CN(C(=O)NCC(F)(F)F)C[C@@H]1c1cnc2cnc3[nH]ccc3n12` [Compound 1, (3S,4R)-3-ethyl-4-(3H-imidazo[1,2-a]pyrrolo[2,3-e]pyrazin-8-yl)-N-(2,2,2-trifluoroethyl)pyrrolidine-1-carboxamide] here?
**A.** 48 µM

**Q.** What about the “time-dependent inhibition of CYP1A2” value (CYP1A2; human liver microsomes) of the same molecule?
**A.** No obvious time-dependent inhibition

**Q.** And the “inhibition of CYP1A2” value (CYP1A2; up to 30 μM)?
**A.** did not inhibit; also recorded: not an inhibitor

**Q.** And the “peripheral NK or NKT cell counts per μL” value [1]?
**A.** only at 12 and 24 mg

**Q.** And the reticulocyte counts [1]?
**A.** does not dose dependently reduce reticulocyte counts

**Q.** And the “time-dependent inhibition of CYP2B6” value (CYP2B6; human liver microsomes)?
**A.** No obvious time-dependent inhibition

**Q.** And the “inhibition of CYP2B6” value (CYP2B6; up to 30 μM)?
**A.** did not inhibit; also recorded: not an inhibitor

**Q.** And the “mean total recovery of dosed radioactivity” value ([2]; intravenous)?
**A.** 96.0%

**Q.** And the “radioactivity excreted into bile” value ([2]; intravenous)?
**A.** 49.7 % of dose

**Q.** What about the “radioactivity excreted into urine” value ([2]; intravenous) of the same molecule?
**A.** 23.7 % of dose

**Q.** What about the “mean total recovery of dosed radioactivity” value ([2]; oral) of the same molecule?
**A.** 96.8%

**Q.** And the “parent drug excreted unchanged in urine” value ([2]; oral)?
**A.** 9%

**Q.** What about the “radioactivity excreted into bile” value ([2]; oral) of the same molecule?
**A.** 52.6 % of dose

**Q.** What about the “radioactivity excreted into urine” value ([2]; oral) of the same molecule?
**A.** 11.1 % of dose

**Q.** And the “dose absorbed (radioactivity in bile and urine)” value ([2]; single oral dose 3 mg/kg)?
**A.** at least 63.7%

**Q.** What about the IC50 (IL-15 signaling; read-out: IL-15 (pSTAT5, CD3+)) of the same molecule?
**A.** 0.016 µM

**Q.** What about the IC50 (IL-15 signaling; whole blood, read-out: IC50 IL-15 pSTAT5 CD3+) of the same molecule?
**A.** 0.016 µM

**Q.** And the IC50 (EPO (Erythroid CFU))?
**A.** 0.4 µM

**Q.** What about the “decrease in AUC in the presence of food” value ([3]; Substudy 2, 3 mg single dose) of the same molecule?
**A.** < 1%

**Q.** What about the AUC(0-t) ([3]; oral, 3 mg) of the same molecule?
**A.** 102 ng·h/mL

**Q.** And the AUC(0-t) ([3]; oral, 6 mg)?
**A.** 159 ng·h/mL

**Q.** What about the AUC(0-t) ([3]; oral, 24 mg) of the same molecule?
**A.** 612 ng·h/mL

**Q.** What about the AUC(0-inf) ([3]; single oral 1 mg, mean ± SD) of the same molecule?
**A.** 30.1 ± 5.72 ng·h/mL

**Q.** And the AUC(0-t) ([3]; single oral 1 mg, mean ± SD)?
**A.** 29.8 ± 5.78 ng·h/mL

**Q.** And the AUC(0-t) ([3]; single oral 3 mg, mean ± SD)?
**A.** 102 ± 27.5 ng·h/mL

**Q.** What about the AUC(0-t) ([3]; single oral 6 mg, mean ± SD) of the same molecule?
**A.** 159 ± 37.5 ng·h/mL

**Q.** And the AUC(0-t) ([3]; single oral 12 mg, mean ± SD)?
**A.** 329 ± 48.9 ng·h/mL

**Q.** And the AUC(0-t) ([3]; single oral 24 mg, mean ± SD)?
**A.** 612 ± 78.6 ng·h/mL

**Q.** What about the AUC(0-t) ([3]; single oral 36 mg, mean ± SD) of the same molecule?
**A.** 909 ± 201 ng·h/mL

**Q.** What about the AUC(0-inf) ([3]; single oral 48 mg, mean ± SD) of the same molecule?
**A.** 1040 ± 174 ng·h/mL

**Q.** And the AUC(0-t) ([3]; single oral 48 mg, mean ± SD)?
**A.** 1030 ± 174 ng·h/mL

**Q.** And the “fe, dose recovered unchanged in urine” value ([3]; single oral 1 mg, mean ± SD)?
**A.** 17.7 ± 9.58%

**Q.** What about the “fe, dose recovered unchanged in urine” value ([3]; single oral 3 mg, mean ± SD) of the same molecule?
**A.** 15.6 ± 4.44%

**Q.** And the “fe, dose recovered unchanged in urine” value ([3]; single oral 6 mg, mean ± SD)?
**A.** 15.6 ± 3.49%

**Q.** What about the “fe, dose recovered unchanged in urine” value ([3]; single oral 12 mg, mean ± SD) of the same molecule?
**A.** 19.9 ± 2.26%

**Q.** And the “fe, dose recovered unchanged in urine” value ([3]; single oral 24 mg, mean ± SD)?
**A.** 18.6 ± 3.08%

**Q.** What about the “fe, dose recovered unchanged in urine” value ([3]; single oral 36 mg, mean ± SD) of the same molecule?
**A.** 20.8 ± 9.25%

**Q.** What about the “fe, dose recovered unchanged in urine” value ([3]; single oral 48 mg, mean ± SD) of the same molecule?
**A.** 16.4 ± 5.48%

**Q.** What about the “time-dependent inhibition of CYP2C19” value (CYP2C19; human liver microsomes) of the same molecule?
**A.** No obvious time-dependent inhibition

**Q.** And the “inhibition of CYP2C19” value (CYP2C19; up to 30 μM)?
**A.** did not inhibit; also recorded: not an inhibitor

**Q.** And the “time-dependent inhibition of CYP2C9” value (CYP2C9; human liver microsomes)?
**A.** No obvious time-dependent inhibition

**Q.** And the “inhibition of CYP2C9” value (CYP2C9; up to 30 μM)?
**A.** did not inhibit; also recorded: not an inhibitor

**Q.** What about the CLint scaled at 1 μM [4] of the same molecule?
**A.** 6.92 mL/min/kg

**Q.** And the IC50 (MATE1)?
**A.** 11 µM

**Q.** And the IC50 (P-gp)?
**A.** 348 µM

**Q.** What about the “mRNA expression of CYP3A4” value (CYP3A4) of the same molecule?
**A.** did not increase

**Q.** And the “time-dependent inhibition of CYP2C8” value (CYP2C8; human liver microsomes)?
**A.** No obvious time-dependent inhibition

**Q.** And the “inhibition of CYP2C8” value (CYP2C8; up to 30 μM)?
**A.** did not inhibit; also recorded: not an inhibitor

**Q.** And the fraction unbound [5]?
**A.** 0.36

**Q.** And the CLint scaled at 0.5 μM [6]?
**A.** 84.7 mL/min/kg

**Q.** What about the NOAEL at 9 months [7] of the same molecule?
**A.** 1.5 mg/kg/day

From patent US20150118229A1, “JAK1 SELECTIVE INHIBITOR AND USES THEREOF” (ABBVIE INC., priority 2013, published 2015)
